Data published in patent publication US20100016402A1, “UNIT DOSE FORMULATIONS OF KETOROLAC FOR INTRANASAL ADMINISTRATION” (Roxro Pharma, Inc., priority 2008, published 2010).
Structures can show the parent of a compound that is named as a salt.

How the values were obtained:
[1] = solubility in water at different pH
[2] = solubility of local anesthetic in ketorolac solution; format: physicochemical; conditions: 15% ketorolac, not re-dispersed by heating or adjusting the pH
[3] = degradation of ketorolac in solution; format: physicochemical; conditions: 1-keto analog proportional to amount of ketorolac and available oxygen
Text: The amount of 1-keto analog produced is generally proportional to the amount of ketorolac in solution and available oxygen (e.g., in the head space of the container, such as those described in U.S. patent application Ser. No. 12/404,250, filed on Mar. 13, 2009, entitled, “Device for Intranasal Administration,”).

For CCOC(=O)c1ccc(N)cc1 [benzocaine hydrochloride], the “pH of the solution in water” value [1] was “about 1.5” and the solubility in water ([1]; water, pH not adjusted) was “soluble in water”.

In the case of CCOC(=O)c1ccc(N)cc1 [benzocaine], the “precipitation in the presence of ketorolac” value ([2]; 6% benzocaine solution) is reported as “precipitation was observed”, the “precipitation in the presence of ketorolac” value ([2]; 10% benzocaine solution) is reported as “precipitation was observed” and the solubility ([1]; low pH) is reported as “soluble”. For the same compound, the solubility in water ([1]; physiological pH ranges of 4.5 to 7.2) was “low solubility”.

For O=C(c1ccccc1)c1ccc2n1CCC2C(=O)O (stereo not shown) [ketorolac, 5-benzoyl-2,3-dihydro-1H-pyrrolizine-1-carboxylic acid], the “stability in solution (degradation products)” value [3] was “produces several degradation products”.
